The text below walks through data of patent publication US11021470B2, “2-substituted quinazoline compounds comprising a substituted heterocyclic group and methods of use thereof” (Araxes Pharma LLC, priority 2015, dated 2021).

In the first test the target is T1, KRAS G12C 1-169, his-tagged protein, GDP-loaded (Homo sapiens, UniProt P01116, G12C).
T1 construct: KRAS G12C 1-169, his-tagged protein, GDP-loaded
In words: KRAS G12C covalent binding (% modification) by mass spectrometry, ten or three minute incubation. The note with it: covalent binding to KRAS G12C after a ten minute incubation period. Here is the method:
Test compounds were prepared as 10 mM stock solutions in DMSO (Fisher cat #BP-231-100). KRAS G12C 1-169, his-tagged protein, GDP-loaded was diluted to […] in buffer (20 mM Hepes, 150 mM NaCl, 1 mM MgCl2). Compounds were tested for activity as follows:
Compounds were diluted to 50× final test concentration in DMSO in 96-well storage plates. Compound stock solutions were vortexed before use and observed carefully for any sign of precipitation. Dilutions were as follow: • For 100 μM final compound concentration, compounds were diluted to 5000 μM (5 μl 10 mM compound stock+5 μl DMSO and mixed well by pipetting. • For 30 μM final compound concentration, compounds were diluted to 1500 μM (3 μl 10 mM compound stock+17 μl DMSO) and mixed well by pipetting. • For 10 μM final compound concentration, compounds were diluted to 500 μM (2 μl 10 mM compound stock+38 μl DMSO) and mixed well by pipetting. 49 μl of the stock protein solution was added to each well of a 96-well PCR plate (Fisher cat #1423027). 1 μl of the diluted 50× compounds were added to appropriate wells in the PCR plate using 12-channel pipettor. Reactions were mixed carefully and thoroughly by pipetting up/down with a 200 μl multi-channel pipettor. […] 5 μl of 2% formic acid (Fisher cat #A117) in DI H2O was then added to each well followed by mixing with a pipette. The plate was then resealed with aluminum seal and stored on dry ice until analyzed as described below.
The above described assays were analyzed by mass spectrometry according to one of the following two procedures:
The MS instrument is set to positive polarity, 2 GHz resolution, and low mass (1700) mode and allowed to equilibrate for 30 minutes. The instrument is then calibrated, switched to acquisition mode and the appropriate method loaded.
After another 30 minute equilibration time, a blank batch (i.e., buffer) is run to ensure equipment is operating properly. The samples are thawed at 37° C. for 10 minutes, briefly centrifuged, and transfer to the bench top. Wells A1 and H12 are spiked with 1 μL 500 μM internal standard peptide, and the plates centrifuged at 2000×g for 5 minutes. The method is then run and masses of each individual well recorded.
The masses (for which integration data is desired) for each well are pasted into the platemap and exported from the analysis. Masses for the internal standards are exported as well. The data at 50 ppm is extracted for the +19 charge state, and identity of well A1 is assigned using the internal standard spike and integrated. Peak data is exported as a TOF list and the above steps are repeated individually, for the +20, 21, 22, 23, 24, and 25 charge states.
The masses and peak intensities of KRAS G12C protein species were measured using a Dionex RSLCnano system (Thermo Scientific) connected to a Q Exactive Plus mass spectrometer (Thermo Scientific).
[…] of sample was each loaded onto a Aeris™ 3.6 μm WIDEPORE C4 200 Å, LC Column 50×2.1 mm column maintained at 40° C. at a flow rate of 600 μl min^−1 with […] (0.1% formic acid in acetonitrile). The liquid chromatography conditions were 20% solvent B for 1 min, 20% to 60% solvent B for 1.5 min, 60% to 90% solvent for 0.5 min, 90% solvent B for 0.2 min, 90% to 20% solvent B for 0.2 min, and then equilibrated for 1.6 min before the following sample injection. The flow rate was maintained at 600 μl min^−1 throughout the sample analysis.
The mass spectrometer was operated in profile mode at a resolution of 17500, 5 microscans, using 50 msec max injection time and an AGC target of 1e6, and a full mass range from 800-1850 m/z was recorded. The HCD trapping gas was optimized for maximum sensitivity for intact proteins. The ionization method was electrospray ionization, which used a spray voltage of 4 kV, sheath gas flow set to 50 au, auxiliary gas flow set to 10 au and sweep gas flow set to 1 au. […]
Turning to `C=CC(=O)N1C[C@H](C)N(c2nc(N3CC(N(C)C)C3)nc3c(F)c(-c4c(O)cccc4F)c(Cl)cc23)C[C@H]1C` [Compound 24, 1-((2R,5S)-4-(6-chloro-2-(3-(dimethylamino)azetidin-1-yl)-8-fluoro-7-(2-fluoro-6-hydroxyphenyl)quinazolin-4-yl)-2,5-dimethylpiperazin-1-yl)prop-2-en-1-one], the Binding % result is “++ (++ indicates binding activity from 50 to 90%)”. Still for that read-out and setting: then `C=CC(=O)N1C[C@H](C)N(c2nc(OCCN(CC)CC)nc3c(F)c(-c4c(O)cccc4F)c(Cl)cc23)C[C@H]1C` [Compound 48, 1-((2R,5S)-4-(6-chloro-2-(2-(diethylamino)ethoxy)-8-fluoro-7-(2-fluoro-6-hydroxyphenyl)quinazolin-4-yl)-2,5-dimethylpiperazin-1-yl)prop-2-en-1-one], with “++ (++ indicates binding activity from 50 to 90%)”.

Still in this test, the particulars now being: covalent binding to KRAS G12C, % modification after a three minute incubation period.
With `C=CC(=O)N1C[C@H](C)N(c2nc(OCCn3ccnc3C#N)nc3c(F)c(-c4c(O)cccc4F)c(Cl)cc23)C[C@H]1C` (atropisomer, axis not shown) [Compound 278, 1-(2-(4-((2S,5R)-4-acryloyl-2,5-dimethylpiperazin-1-yl)-6-chloro-8-fluoro-7-((S)-2-fluoro-6-hydroxyphenyl)quinazolin-2-yloxy)ethyl)-1H-imidazole-2-carbonitrile], the Binding % entry was “++ (++ indicates binding activity from 50 to 90%)”. As for `C=CC(=O)N1C[C@H](C)N(c2nc(OCCn3cnnc3)nc3c(F)c(-c4c(O)cccc4F)c(Cl)cc23)C[C@H]1C` (atropisomer, axis not shown) [Compound 280, 1-((2R,5S)-4-(2-(2-(4H-1,2,4-triazol-4-yl)ethoxy)-6-chloro-8-fluoro-7-((S)-2-fluoro-6-hydroxyphenyl)quinazolin-4-yl)-2,5-dimethylpiperazin-1-yl)prop-2-en-1-one], the Binding % result was “+++ (+++ indicates binding activity greater than 90%)”. Still for that read-out and setting: then `C=CC(=O)N1C[C@H](C)N(c2nc(OCC(C)(C)C#N)nc3c(F)c(-c4c(O)cccc4F)c(Cl)cc23)C[C@H]1C` (atropisomer, axis not shown) [Compound 282, 3-((4-((2S,5R)-4-acryloyl-2,5-dimethylpiperazin-1-yl)-6-chloro-8-fluoro-7-((S)-2-fluoro-6-hydroxyphenyl)quinazolin-2-yl)oxy)-2,2-dimethylpropanenitrile], with “++ (++ indicates binding activity from 50 to 90%)”; and `C=CC(=O)N1C[C@H](C)N(c2nc(OCCc3cncn3C)nc3c(F)c(-c4c(O)cccc4F)c(Cl)cc23)C[C@H]1C` (atropisomer, axis not shown) [Compound 284, 1-((2R,5S)-4-(6-chloro-8-fluoro-7-((S)-2-fluoro-6-hydroxyphenyl)-2-(2-(1-methyl-1H-imidazol-5-yl)ethoxy)quinazolin-4-yl)-2,5-dimethylpiperazin-1-yl)prop-2-en-1-one], with “+++ (+++ indicates binding activity greater than 90%)”; and `C=CC(=O)N1C[C@H](C)N(c2nc(OCCc3nccn3C)nc3c(F)c(-c4c(O)cccc4F)c(Cl)cc23)C[C@H]1C` (atropisomer, axis not shown) [Compound 288, 1-((2R,5S)-4-((S)-6-chloro-8-fluoro-7-(2-fluoro-6-hydroxyphenyl)-2-(2-(1-methyl-1H-imidazol-2-yl)ethoxy)quinazolin-4-yl)-2,5-dimethylpiperazin-1-yl)prop-2-en-1-one], with “+++ (+++ indicates binding activity greater than 90%)”. For `C=CC(=O)N1C[C@H](C)N(c2nc(OCCc3ncc(C)n3C)nc3c(F)c(-c4c(O)cccc4F)c(Cl)cc23)C[C@H]1C` (atropisomer, axis not shown) [Compound 289, 1-((2R,5S)-4-((S)-6-chloro-2-(2-(1,5-dimethyl-1H-imidazol-2-yl)ethoxy)-8-fluoro-7-(2-fluoro-6-hydroxyphenyl)quinazolin-4-yl)-2,5-dimethylpiperazin-1-yl)prop-2-en-1-one], the Binding % entry is recorded as “+++ (+++ indicates binding activity greater than 90%)”.
